Earlier results on one molecule are cited in PubChem BioAssay AID1259409 (Chemical Carcinogenesis Research Information System (CCRIS), 2018).

The structures appear in SMILES notation.

The data set has as its system rodent chemically induced tumor inhibition, incidence and multiplicity. Nature of the data set: CCRIS tumor inhibitor studies.

`CC1=C(/C=C/C(C)=C/C=C/C(C)=C/C=C/C=C(C)/C=C/C=C(C)/C=C/C2=C(C)CCCC2(C)C)C(C)(C)CCC1`: the “tumour outcome (control, treated, inhibition, significance)” value is 23/28 (82%), 11/20 (55%), 33%, p<0.05 (Carcinogen: 1,2-DIMETHYLHYDRAZINE, 540-73-8, Dose [Inhibitor]: 0, 0.005% IN DIET FOR 14 WK BEGINNING 3 D PRIOR TO CARCINOGEN TREATMENT (STUDY DURATION: 26 WK), Route [Inhibitor]: ORAL, Species: RAT, Strain/Sex: SPRAGUE-DAWLEY/MALE, Target Tissue: Type of Lesion: INTESTINE: CARCINOMA, Dose [Carcinogen]: 20 MG/KG BW 1/WK FOR 12 WK, Promoter: NONE USED); 100%, 100%, 0%, not significant (Carcinogen: 4-(METHYLNITROSAMINO)-1-(3-PYRIDYL)-1-BUTANONE [64091-50-5], Dose [Inhibitor]: 16 MG/KG SC 2X/WK FOR 16 WK BEGINNING 1 WK PRIOR TO FIRST CARCINOGEN DOSE (STUDY DURATION: 16 WK), Route [Inhibitor]: SUBCUTANEOUS, Species: MOUSE, Strain/Sex: A/J/FEMALE, Target Tissue: Type of Lesion: LUNG: ADENOMA OR ADENOCARCINOMA, Dose [Carcinogen]: 10 UMOL ONCE 1 WK POST FIRST INHIBITOR DOSE (STUDY DURATION: 16 WK), Promoter: NONE); 100%, 100%, 0%, not significant (Carcinogen: 4-(METHYLNITROSAMINO)-1-(3-PYRIDYL)-1-BUTANONE [64091-50-5], Dose [Inhibitor]: 32 MG/KG SC 2X/WK FOR 17 WK BEGINNING 1 WK PRIOR TO FIRST CARCINOGEN DOSE (STUDY DURATION: 17 WK), Route [Inhibitor]: SUBCUTANEOUS, Species: MOUSE, Strain/Sex: A/J/FEMALE, Target Tissue: Type of Lesion: LUNG: ADENOMA, Dose [Carcinogen]: 10 UMOL ONCE 1 WK POST FIRST INHIBITOR DOSE (STUDY DURATION: 17 WK), Promoter: NONE); 100%, 100%, 0%, not significant (Carcinogen: 4-(METHYLNITROSAMINO)-1-(3-PYRIDYL)-1-BUTANONE [64091-50-5], Dose [Inhibitor]: 32 MG/KG SC 2X/WK FOR 53 WK BEGINNING 1 WK PRIOR TO FIRST CARCINOGEN DOSE (STUDY DURATION: 53 WK), Route [Inhibitor]: SUBCUTANEOUS, Species: MOUSE, Strain/Sex: A/J/FEMALE, Target Tissue: Type of Lesion: LUNG: ADENOMA OR ADENOCARCINOMA, Dose [Carcinogen]: 10 UMOL ONCE 1 WK POST FIRST INHIBITOR DOSE (STUDY DURATION: 53 WK), Promoter: NONE); 94%, 93%, 1%, not significant (Carcinogen: 4-NITROQUINOLINE-1-OXIDE, 56-57-5, Dose [Inhibitor]: 0, 0.05% IN DRINKING WATER AD LIBITUM (STUDY DURATION: 30 WK), Route [Inhibitor]: ORAL, Species: MOUSE, Strain/Sex: DDY/MALE, Target Tissue: Type of Lesion: LUNG: TUMOR, Dose [Carcinogen]: 10 MG/KG BW IN OLIVE OIL/CHOLESTEROL (20:1) ONCE, Promoter: GLYCEROL, 56-81-5); 94%, 93%, 1%, not significant (Carcinogen: 4-NITROQUINOLINE-1-OXIDE, 56-57-5, Dose [Inhibitor]: 0, 0.05% IN DRINKING WATER BEGINNING 5 WK POST CARCINOGEN TREATMENT AND CONTINUING FOR 25 WK (STUDY DURATION: 30 WK), Route [Inhibitor]: ORAL, Species: MOUSE, Strain/Sex: DDY/MALE, Target Tissue: Type of Lesion: LUNG: TUMORS, Dose [Carcinogen]: 10 MG/KG BW IN OLIVE OIL AND CHOLESTEROL (20:1) ONCE, Promoter: NONE USED). In addition, the “tumour outcome (control, treated, inhibition, significance)” value runs as follows: (Carcinogen: 4-NITROQUINOLINE-1-OXIDE, 56-57-5, Dose [Inhibitor]: 0, 500 PPM IN DIET FOR 10 WK BEGINNING 1 WK PRIOR TO CARCINOGEN TREATMENT (STUDY DURATION: 32 WK), Route [Inhibitor]: ORAL, Species: RAT, Strain/Sex: F344/MALE, Target Tissue: Type of Lesion: TONGUE: CARCINOMA, Dose [Carcinogen]: 20 PPM IN DRINKING WATER FOR 8 WK, Promoter: NONE USED) 13/24 (54%), 3/17 (18%), 67%, p<0.05; (Carcinogen: 4-NITROQUINOLINE-1-OXIDE, 56-57-5, Dose [Inhibitor]: 0, 500 PPM IN DIET FOR 10 WK BEGINNING 1 WK PRIOR TO CARCINOGEN TREATMENT (STUDY DURATION: 32 WK), Route [Inhibitor]: ORAL, Species: RAT, Strain/Sex: F344/MALE, Target Tissue: Type of Lesion: TONGUE: PAPILLOMA, Dose [Carcinogen]: 20 PPM IN DRINKING WATER FOR 8 WK, Promoter: NONE USED) 4/24 (17%), 2/17 (12%), 29%, not significant; (Carcinogen: 4-NITROQUINOLINE-1-OXIDE, 56-57-5, Dose [Inhibitor]: 0, 500 PPM IN DIET FOR 22 WK BEGINNING 1 WK POST CARCINOGEN TREATMENT (STUDY DURATION: 32 WK), Route [Inhibitor]: ORAL, Species: RAT, Strain/Sex: F344/MALE, Target Tissue: Type of Lesion: TONGUE: CARCINOMA, Dose [Carcinogen]: 20 PPM IN DRINKING WATER FOR 8 WK, Promoter: NONE USED) 13/24 (54%), 4/17 (24%), 56%, p<0.05; (Carcinogen: 4-NITROQUINOLINE-1-OXIDE, 56-57-5, Dose [Inhibitor]: 0, 500 PPM IN DIET FOR 22 WK BEGINNING 1 WK POST CARCINOGEN TREATMENT (STUDY DURATION: 32 WK), Route [Inhibitor]: ORAL, Species: RAT, Strain/Sex: F344/MALE, Target Tissue: Type of Lesion: TONGUE: PAPILLOMA, Dose [Carcinogen]: 20 PPM IN DRINKING WATER FOR 8 WK, Promoter: NONE USED) 4/24 (17%), 2/17 (12%), 29%, not significant; (Carcinogen: 7,12-DIMETHYLBENZ[A]ANTHRACENE, 57-97-6, Dose [Inhibitor]: 0, 0.05% IN DRINKING WATER AD LIBITUM FOR 30 WK BEGINNING 1 WK POST CARCINOGEN DOSE (STUDY DURATION: 31 WK), Route [Inhibitor]: ORAL, Species: MOUSE, Strain/Sex: ICR/FEMALE, Target Tissue: Type of Lesion: SKIN: TUMOR, Dose [Carcinogen]: 100 UG ONCE, Promoter: 12-O-TETRADECANOYLPHORBOL-13-ACETATE, 16561-29-8) 13/16 (81%), 8/16 (50%), 38%, not significant; (Carcinogen: 7,12-DIMETHYLBENZ[A]ANTHRACENE, 57-97-6, Dose [Inhibitor]: 0, 200 NMOL IN 200 µL ACETONE 2/WK BEGINNING 1 WK POST CARCINOGEN DOSE APPLIED SIMULTANEOUSLY WITH PROMOTER FOR 20 WK (S, Route [Inhibitor]: DERMAL, Species: MOUSE, Strain/Sex: ICR/?, Target Tissue: Type of Lesion: SKIN: PAPILLOMA, Dose [Carcinogen]: 100 UG ONCE, Promoter: 12-O-TETRADECANOYLPHORBOL-13-ACETATE, 16561-29-8) 69%, 31%, 55%, not calculated. The “tumour outcome (control, treated, inhibition, significance)” value is, setting by setting: (Carcinogen: 7,12-DIMETHYLBENZ[A]ANTHRACENE, 57-97-6, Dose [Inhibitor]: 0, 200 NMOL IN 200 µL ACETONE 2/WK FOR 40 WK APPLIED SIMULTANEOUSLY WITH PROMOTER BEGINNING 1 WK POST CARCINOGEN DOSE (S, Route [Inhibitor]: DERMAL, Species: MOUSE, Strain/Sex: ICR/FEMALE, Target Tissue: Type of Lesion: SKIN: TUMOR, Dose [Carcinogen]: 100 UG ONCE, Promoter: 12-O-TETRADECANOYLPHORBOL-13-ACETATE, 16561-29-8) 10/15 (67%), 8/15 (53%), 21%, not significant; (Carcinogen: 7,12-DIMETHYLBENZ[A]ANTHRACENE, 57-97-6, Dose [Inhibitor]: 0, 200 NMOL PALM CAROTENE FOR 22 WK BEGINNING 1 WK POST CARCINOGEN DOSE (STUDY DURATION: 40 WK), Route [Inhibitor]: DERMAL, Species: MOUSE, Strain/Sex: ICR/FEMALE, Target Tissue: Type of Lesion: SKIN: TUMOR, Dose [Carcinogen]: 100 UG ONCE, Promoter: GLYCOCHOLIC ACID, 475-31-0, MEZEREIN, 34807-41-5, Promoter: GLYCOCHOLIC ACID, 475-31-0, MEZEREIN, 34807-41-5) 26%, 0%, 100%, not calculated; (Carcinogen: 7,12-DIMETHYLBENZ[A]ANTHRACENE, 57-97-6, Dose [Inhibitor]: 0, 250 MG SUSPENDED IN LIQUID PARAFFIN APPLIED TO EACH CHEEK POUCH 2/WK BEGINNING 15 D POST LAST CARCINOGEN DOSE AND CON, Route [Inhibitor]: DERMAL, Species: HAMSTER, Strain/Sex: SYRIAN/MALE, Target Tissue: Type of Lesion: CHEEK POUCH: TUMOR, Dose [Carcinogen]: 0.125 MG (0.25% LIQUID PARAFFIN SOLUTION) APPLIED TO EACH CHEEK POUCH FOR 1 MO, Promoter: NONE USED) 10/15 (67%), 0/20 (0%), 100%, not calculated; (Carcinogen: 7,12-DIMETHYLBENZ[A]ANTHRACENE, 57-97-6, Dose [Inhibitor]: 0, 250 MG SUSPENDED IN LIQUID PARAFFIN APPLIED TO EACH CHEEK POUCH 2/WK BEGINNING 15 D POST LAST CARCINOGEN DOSE AND CON, Route [Inhibitor]: DERMAL, Species: HAMSTER, Strain/Sex: SYRIAN/MALE, Target Tissue: Type of Lesion: STOMACH: TUMOR, Dose [Carcinogen]: 0.125 MG (0.25% LIQUID PARAFFIN IN SOLUTION) APPLIED TO EACH CHEEK POUCH 2/WK FOR 1 MO, Promoter: NONE USED) 15/15 (100%), 0/20 (0%), 100%, not calculated; (Carcinogen: 7,12-DIMETHYLBENZ[A]ANTHRACENE, 57-97-6, Dose [Inhibitor]: 0, 290 IU/KG IN 100 µL PEANUT OIL 5 D/WK BEGINNING 1 WK POST CARCINOGEN DOSE AND CONTINUING FOR DURATION OF STUDY (STUDY, Route [Inhibitor]: GAVAGE, Species: MOUSE, Strain/Sex: HRA/SKH/FEMALE, Target Tissue: Type of Lesion: SKIN: CARCINOMA, Dose [Carcinogen]: 10 NMOL IN 50 µL ACETONE ONCE) 7/25 (28%), 7/38 (18%), 36%, not calculated. In addition, under “Carcinogen: 7,12-DIMETHYLBENZ[A]ANTHRACENE, 57-97-6, Dose [Inhibitor]: 0, 290 IU/KG IN 100 µL PEANUT OIL 5 D/WK BEGINNING 1 WK POST CARCINOGEN DOSE AND CONTINUING FOR DURATION OF STUDY (STUDY, Route [Inhibitor]: GAVAGE, Species: MOUSE, Strain/Sex: HRA/SKH/FEMALE, Target Tissue: Type of Lesion: SKIN: PAPILLOMA, Dose [Carcinogen]: 10 NMOL IN 50 µL ACETONE ONCE”, the outcome is recorded as 97%, 77%, 21%, not calculated at 20 wk; 68%, 50%, 27%, not calculated at 40 wk.
